Measured values taken from publication PMC4447944 (The Journal of Biological Chemistry, 2015).

Tests used:
hAKT1 = molecular target: T1, hAKT1 (Homo sapiens, UniProt P31749); test: KINOMEscan; type: binding
T1 construct: purchased DiscoverX

hFYN = molecular target: T2, hFYN (Homo sapiens, UniProt P06241); test: KINOMEscan; type: binding
T2 construct: purchased DiscoverX

hRET(M918T) = molecular target: T3, hRET(M918T) (Homo sapiens, UniProt P07949, M918T); test: KINOMEscan; type: binding
T3 construct: purchased DiscoverX (KINOMEscan platform)
T3 sequence (P07949 29-1114 M918T): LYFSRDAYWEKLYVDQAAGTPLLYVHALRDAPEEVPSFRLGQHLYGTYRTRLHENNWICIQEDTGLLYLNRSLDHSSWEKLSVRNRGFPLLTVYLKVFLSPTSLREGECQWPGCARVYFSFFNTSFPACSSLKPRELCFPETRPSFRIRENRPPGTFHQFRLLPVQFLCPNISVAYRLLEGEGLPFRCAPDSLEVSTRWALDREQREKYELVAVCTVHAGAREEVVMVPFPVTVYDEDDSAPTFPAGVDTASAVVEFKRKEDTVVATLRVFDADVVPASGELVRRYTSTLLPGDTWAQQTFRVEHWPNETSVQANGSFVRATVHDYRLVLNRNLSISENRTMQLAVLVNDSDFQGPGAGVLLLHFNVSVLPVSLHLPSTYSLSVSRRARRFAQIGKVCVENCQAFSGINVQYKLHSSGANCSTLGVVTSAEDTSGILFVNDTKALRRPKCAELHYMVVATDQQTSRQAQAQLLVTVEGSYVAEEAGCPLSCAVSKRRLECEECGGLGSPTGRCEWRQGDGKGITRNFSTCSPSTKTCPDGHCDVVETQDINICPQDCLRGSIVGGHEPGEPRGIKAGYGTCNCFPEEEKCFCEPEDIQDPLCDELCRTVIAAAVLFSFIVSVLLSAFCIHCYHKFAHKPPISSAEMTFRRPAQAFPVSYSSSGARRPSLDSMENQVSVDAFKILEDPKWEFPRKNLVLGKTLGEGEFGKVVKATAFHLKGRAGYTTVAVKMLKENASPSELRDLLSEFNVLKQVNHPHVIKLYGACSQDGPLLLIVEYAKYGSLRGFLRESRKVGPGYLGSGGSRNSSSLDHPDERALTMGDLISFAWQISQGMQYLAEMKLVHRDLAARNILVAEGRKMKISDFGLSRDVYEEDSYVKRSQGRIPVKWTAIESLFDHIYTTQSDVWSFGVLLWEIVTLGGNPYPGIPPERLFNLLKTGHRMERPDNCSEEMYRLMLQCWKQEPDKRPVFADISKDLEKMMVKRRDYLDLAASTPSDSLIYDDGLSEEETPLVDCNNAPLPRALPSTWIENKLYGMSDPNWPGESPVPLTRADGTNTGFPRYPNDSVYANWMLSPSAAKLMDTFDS

hFGFR3 = molecular target: T4, hFGFR3 (Homo sapiens, UniProt P22607); test: KINOMEscan; type: binding
T4 construct: purchased DiscoverX

hPYK2 = molecular target: T5, hPYK2 (Homo sapiens, UniProt Q14289); test: KINOMEscan; type: binding
T5 construct: purchased DiscoverX
T5 sequence (Q14289 whole entry): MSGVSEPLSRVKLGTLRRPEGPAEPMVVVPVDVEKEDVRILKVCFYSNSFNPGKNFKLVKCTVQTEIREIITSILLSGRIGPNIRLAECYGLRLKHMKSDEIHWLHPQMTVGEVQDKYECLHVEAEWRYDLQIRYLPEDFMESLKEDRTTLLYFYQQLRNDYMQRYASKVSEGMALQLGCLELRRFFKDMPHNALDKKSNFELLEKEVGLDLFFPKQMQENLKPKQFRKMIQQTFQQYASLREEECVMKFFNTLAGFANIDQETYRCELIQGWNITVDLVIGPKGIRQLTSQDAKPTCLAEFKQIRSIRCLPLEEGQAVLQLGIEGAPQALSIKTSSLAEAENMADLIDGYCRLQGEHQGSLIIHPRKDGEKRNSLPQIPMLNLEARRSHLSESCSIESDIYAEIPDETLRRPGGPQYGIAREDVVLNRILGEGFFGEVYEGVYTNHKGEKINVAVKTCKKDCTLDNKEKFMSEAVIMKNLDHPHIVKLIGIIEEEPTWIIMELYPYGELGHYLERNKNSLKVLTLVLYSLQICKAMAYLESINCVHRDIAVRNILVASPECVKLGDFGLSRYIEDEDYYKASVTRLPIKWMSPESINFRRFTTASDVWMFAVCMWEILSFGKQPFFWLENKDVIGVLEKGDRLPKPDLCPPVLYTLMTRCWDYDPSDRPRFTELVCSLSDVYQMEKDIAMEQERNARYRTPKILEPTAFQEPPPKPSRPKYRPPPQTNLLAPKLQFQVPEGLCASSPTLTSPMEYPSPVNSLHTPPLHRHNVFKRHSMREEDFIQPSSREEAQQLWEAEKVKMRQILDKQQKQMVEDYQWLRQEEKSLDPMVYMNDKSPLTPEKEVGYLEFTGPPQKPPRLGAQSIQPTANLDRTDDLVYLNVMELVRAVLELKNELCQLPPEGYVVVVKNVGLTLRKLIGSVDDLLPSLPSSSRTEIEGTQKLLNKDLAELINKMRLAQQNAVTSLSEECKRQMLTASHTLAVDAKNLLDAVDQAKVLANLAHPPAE

[1] = system: SMYD2-induced p53 methylation; test: Cell-based ELISA for p53 Lys370me1, U2OS cells transfected with FLAG-SMYD2; conditions: Homo sapiens, 15 h
Description: Cell lysates were subject to 10% SDS-PAGE and transferred to a PVDF membrane. Each membrane was blocked in Odyssey Blocking Buffer (LI-COR Biosciences) and incubated with monoclonal anti-p53 (D01) antibody (Abcam, ab1101) or rabbit anti-p53 Lys^370me1 antibody (a kind gift from Dr. Shelley Berger) followed by detection with IRDye®680RD goat anti-mouse IgG (LI-COR Biosciences) and IRDye800CW goat anti-rabbit IgG (LI-COR Biosciences) on the Odyssey Imager (LI-COR Biosciences). […] 4–8 h later, cells were treated with 0–25 μM compound for 15 h. […] 24 h later, cells were lysed with 200 μl of MSD Tris Lysis Buffer^TM (Meso Scale Discovery). A MULTI-ARRAY^TM 96-well plate (Meso Scale Discovery, catalog number L15XA-3) was precoated with 2 μg/ml custom-made methyl-p53 antibody (Lampire) in PBS overnight at 4 °C. 150 μl/well MSD Blocking Solution A^TM (final concentration of 3%) was added followed by shaking at room temperature for 1 h. The plate was washed three times with 1× MSD Tris Wash Buffer^TM (Meso Scale Discovery). 0.5 μg of cell lysate in 25 μl/well MSD Tris Lysis Buffer was added, followed by shaking overnight at 4 °C. […] Following a final wash three times with 1× MSD Tris Wash Buffer, 150 μl/well 1× MSD Read Buffer^TM (Meso Scale Discovery) was added, and plates were read on an MSD SECTOR^TM Imager 6000 instrument (Meso Scale Discovery).

hTAOK1 = molecular target: T6, hTAOK1 (Homo sapiens, UniProt Q7L7X3); test: KINOMEscan; type: binding
T6 construct: purchased DiscoverX

hM2 = molecular target: T7, hM2 (Homo sapiens, UniProt P08172); test: β-arrestin Agonist (Eurofins-CEREP); conditions: @ 10 μM
T7 sequence (P08172 1-466): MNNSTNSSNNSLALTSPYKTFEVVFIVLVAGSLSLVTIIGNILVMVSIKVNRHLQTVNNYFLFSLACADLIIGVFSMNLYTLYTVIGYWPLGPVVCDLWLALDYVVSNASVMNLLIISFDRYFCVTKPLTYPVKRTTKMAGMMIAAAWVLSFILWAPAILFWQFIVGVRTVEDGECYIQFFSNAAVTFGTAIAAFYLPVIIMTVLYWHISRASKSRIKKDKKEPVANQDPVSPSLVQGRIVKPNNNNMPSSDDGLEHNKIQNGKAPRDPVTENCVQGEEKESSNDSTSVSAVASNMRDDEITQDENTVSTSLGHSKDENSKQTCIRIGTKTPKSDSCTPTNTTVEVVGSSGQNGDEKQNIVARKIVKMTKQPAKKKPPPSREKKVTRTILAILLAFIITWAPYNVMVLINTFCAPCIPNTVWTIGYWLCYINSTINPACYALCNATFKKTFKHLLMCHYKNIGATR

hABL1(H396P) = molecular target: T8, hABL1(H396P) (Homo sapiens, UniProt P00519, H396P); test: KINOMEscan; type: binding
T8 construct: purchased DiscoverX (KINOMEscan platform)

hSGK2 = molecular target: T9, hSGK2 (Homo sapiens, UniProt Q9HBY8); test: KINOMEscan; type: binding
T9 construct: purchased DiscoverX (KINOMEscan platform)
T9 sequence (Q9HBY8 whole entry): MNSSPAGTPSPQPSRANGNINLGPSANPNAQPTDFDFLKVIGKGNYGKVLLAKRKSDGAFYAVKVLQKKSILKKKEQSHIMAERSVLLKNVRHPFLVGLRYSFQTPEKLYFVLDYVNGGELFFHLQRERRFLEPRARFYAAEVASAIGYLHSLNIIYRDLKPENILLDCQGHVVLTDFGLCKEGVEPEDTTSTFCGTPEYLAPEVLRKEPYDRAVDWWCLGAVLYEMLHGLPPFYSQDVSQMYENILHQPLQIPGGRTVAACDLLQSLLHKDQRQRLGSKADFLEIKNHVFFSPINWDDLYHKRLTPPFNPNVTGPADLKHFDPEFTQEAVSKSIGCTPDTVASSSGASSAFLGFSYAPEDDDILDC

hIRAK3 = molecular target: T10, hIRAK3 (Homo sapiens, UniProt Q9Y616); test: KINOMEscan; type: binding
T10 construct: purchased DiscoverX (KINOMEscan panel)
T10 sequence (Q9Y616 whole entry): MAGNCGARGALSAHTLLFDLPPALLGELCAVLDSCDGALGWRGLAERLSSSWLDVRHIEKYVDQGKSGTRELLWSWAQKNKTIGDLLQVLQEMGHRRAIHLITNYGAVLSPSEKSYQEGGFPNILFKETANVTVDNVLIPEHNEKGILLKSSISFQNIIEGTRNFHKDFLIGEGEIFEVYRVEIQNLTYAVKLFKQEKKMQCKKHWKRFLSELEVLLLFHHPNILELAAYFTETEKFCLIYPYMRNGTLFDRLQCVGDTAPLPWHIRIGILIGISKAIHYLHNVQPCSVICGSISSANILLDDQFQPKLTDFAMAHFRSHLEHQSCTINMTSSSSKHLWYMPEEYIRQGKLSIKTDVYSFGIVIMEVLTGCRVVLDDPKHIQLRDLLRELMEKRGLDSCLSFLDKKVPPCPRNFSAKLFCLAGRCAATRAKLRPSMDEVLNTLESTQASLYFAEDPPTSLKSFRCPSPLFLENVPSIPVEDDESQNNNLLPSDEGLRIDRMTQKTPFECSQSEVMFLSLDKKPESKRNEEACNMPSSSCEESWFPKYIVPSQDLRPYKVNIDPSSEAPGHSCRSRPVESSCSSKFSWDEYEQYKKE

hRIPK4 = molecular target: T11, hRIPK4 (Homo sapiens, UniProt P57078); test: KINOMEscan; type: binding
T11 construct: purchased DiscoverX (KINOMEscan platform)
T11 sequence (P57078 whole entry): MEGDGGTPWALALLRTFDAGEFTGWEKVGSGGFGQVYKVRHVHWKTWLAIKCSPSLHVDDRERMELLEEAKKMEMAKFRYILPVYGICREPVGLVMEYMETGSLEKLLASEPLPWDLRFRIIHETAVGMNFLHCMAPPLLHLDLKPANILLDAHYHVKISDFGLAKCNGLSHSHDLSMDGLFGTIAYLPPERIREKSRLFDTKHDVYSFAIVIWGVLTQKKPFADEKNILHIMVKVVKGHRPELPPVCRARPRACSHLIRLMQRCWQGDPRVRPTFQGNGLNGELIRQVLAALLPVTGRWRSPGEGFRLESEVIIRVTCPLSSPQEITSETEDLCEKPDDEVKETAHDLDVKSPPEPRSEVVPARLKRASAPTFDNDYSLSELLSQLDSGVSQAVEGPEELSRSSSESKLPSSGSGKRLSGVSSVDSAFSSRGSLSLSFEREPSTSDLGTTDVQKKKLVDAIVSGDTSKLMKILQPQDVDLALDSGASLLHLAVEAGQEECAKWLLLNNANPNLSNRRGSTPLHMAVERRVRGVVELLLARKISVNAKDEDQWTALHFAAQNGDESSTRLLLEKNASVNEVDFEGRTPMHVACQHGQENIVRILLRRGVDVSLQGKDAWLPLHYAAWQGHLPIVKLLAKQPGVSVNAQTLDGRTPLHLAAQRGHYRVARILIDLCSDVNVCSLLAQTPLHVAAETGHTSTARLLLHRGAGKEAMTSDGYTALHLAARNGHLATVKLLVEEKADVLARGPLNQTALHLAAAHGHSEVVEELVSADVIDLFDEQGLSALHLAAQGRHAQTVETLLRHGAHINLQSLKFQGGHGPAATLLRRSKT

hALK = molecular target: T12, hALK (Homo sapiens, UniProt Q9UM73); test: KINOMEscan; type: binding
T12 construct: purchased DiscoverX

hADRα1A = molecular target: T13, hADRα1A (Homo sapiens, UniProt P35348); test: Calcium Mobilization Antagonist (Eurofins-CEREP); conditions: read-out: % Effect, Inhibition
T13 sequence (P35348 1-466): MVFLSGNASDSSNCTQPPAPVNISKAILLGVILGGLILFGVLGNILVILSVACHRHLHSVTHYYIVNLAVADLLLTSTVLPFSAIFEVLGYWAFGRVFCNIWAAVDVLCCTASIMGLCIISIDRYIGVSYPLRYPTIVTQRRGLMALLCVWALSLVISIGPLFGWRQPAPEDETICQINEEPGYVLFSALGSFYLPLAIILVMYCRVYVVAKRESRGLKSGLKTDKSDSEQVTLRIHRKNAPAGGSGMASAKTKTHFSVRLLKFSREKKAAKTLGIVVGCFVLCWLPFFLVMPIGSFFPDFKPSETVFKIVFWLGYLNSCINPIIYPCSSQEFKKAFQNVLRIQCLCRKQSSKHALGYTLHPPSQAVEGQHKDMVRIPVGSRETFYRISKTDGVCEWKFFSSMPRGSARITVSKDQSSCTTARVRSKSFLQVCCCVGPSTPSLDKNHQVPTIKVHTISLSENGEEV

hLYN = molecular target: T14, hLYN (Homo sapiens, UniProt P07948); test: KINOMEscan; type: binding
T14 construct: purchased DiscoverX (KINOMEscan platform)

hADCK3 = molecular target: T15, hADCK3 (Homo sapiens, UniProt Q8NI60); test: KINOMEscan; type: binding
T15 construct: purchased DiscoverX

hAMPK-alpha2 = molecular target: T16, hAMPK-alpha2 (Homo sapiens, UniProt P54646); test: KINOMEscan; type: binding
T16 construct: purchased DiscoverX
T16 sequence (P54646 whole entry): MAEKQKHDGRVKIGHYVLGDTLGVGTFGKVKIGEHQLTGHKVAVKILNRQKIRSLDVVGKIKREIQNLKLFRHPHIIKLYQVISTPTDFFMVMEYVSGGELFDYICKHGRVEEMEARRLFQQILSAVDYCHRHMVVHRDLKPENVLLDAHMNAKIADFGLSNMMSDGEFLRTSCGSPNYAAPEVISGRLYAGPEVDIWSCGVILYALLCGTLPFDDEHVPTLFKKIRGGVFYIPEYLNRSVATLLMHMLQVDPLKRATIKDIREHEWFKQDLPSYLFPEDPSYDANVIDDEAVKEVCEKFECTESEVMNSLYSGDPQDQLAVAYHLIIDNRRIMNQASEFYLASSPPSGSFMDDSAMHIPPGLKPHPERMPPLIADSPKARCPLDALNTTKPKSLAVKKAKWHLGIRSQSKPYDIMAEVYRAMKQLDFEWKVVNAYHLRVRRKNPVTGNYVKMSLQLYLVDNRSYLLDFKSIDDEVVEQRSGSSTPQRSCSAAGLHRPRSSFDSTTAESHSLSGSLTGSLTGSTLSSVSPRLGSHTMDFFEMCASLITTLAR

hTRKC = molecular target: T17, hTRKC (Homo sapiens, UniProt Q16288); test: KINOMEscan; type: binding
T17 construct: purchased DiscoverX

hCSNK1G3 = molecular target: T18, hCSNK1G3 (Homo sapiens, UniProt Q9Y6M4); test: KINOMEscan; type: binding
T18 construct: purchased DiscoverX (KINOMEscan platform)

hBMPR2 = molecular target: T19, hBMPR2 (Homo sapiens, UniProt Q13873); test: KINOMEscan; type: binding
T19 construct: purchased DiscoverX

T2 sequence (P06241 whole entry): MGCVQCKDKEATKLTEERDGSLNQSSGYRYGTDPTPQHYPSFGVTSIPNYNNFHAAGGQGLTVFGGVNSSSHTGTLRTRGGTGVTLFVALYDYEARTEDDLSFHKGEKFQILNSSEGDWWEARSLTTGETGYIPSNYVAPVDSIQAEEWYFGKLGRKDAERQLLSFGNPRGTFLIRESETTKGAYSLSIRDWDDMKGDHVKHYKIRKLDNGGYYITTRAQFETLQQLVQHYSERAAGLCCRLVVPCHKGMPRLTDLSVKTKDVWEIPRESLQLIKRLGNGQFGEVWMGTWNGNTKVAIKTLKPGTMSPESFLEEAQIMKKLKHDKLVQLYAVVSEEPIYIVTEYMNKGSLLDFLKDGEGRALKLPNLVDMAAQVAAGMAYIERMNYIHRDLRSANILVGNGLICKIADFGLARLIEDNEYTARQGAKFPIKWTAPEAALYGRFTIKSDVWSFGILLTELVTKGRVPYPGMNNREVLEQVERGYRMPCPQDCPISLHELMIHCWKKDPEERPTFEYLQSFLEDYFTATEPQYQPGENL

Structure (SMILES): Cc1cn(CCN2CCN(c3ccccc3-c3cc(C#N)cc(C(=O)NCCCN4CCCC4)c3)CC2)c2ccccc12 [LLY-507, 3-cyano-5-{2-[4-[2-(3-methylindol-1-yl)ethyl]piperazin-1-yl]-phenyl}-N-[(3-pyrrolidin-1-yl)propyl]benzamide]
- IC50 (hAKT1): > 20 µM
- IC50 (hFYN): > 20 µM
- IC50 (hRET(M918T)): > 20 µM
- IC50 (hFGFR3): > 20 µM
- IC50 (hPYK2): > 20 µM
- IC50 [1]: 0.6 µM
- IC50 (hTAOK1): > 20 µM
- % Effect, Stimulation (hM2): 5.1%
- IC50 (hABL1(H396P)): > 20 µM
- IC50 (hSGK2): > 20 µM
- IC50 (hIRAK3): > 20 µM
- IC50 (hRIPK4): > 20 µM
- IC50 (hALK): > 20 µM
- inhibition at 10 µM (hADRα1A): 98%
- IC50 (hLYN): > 20 µM
- IC50 (hADCK3): > 20 µM
- IC50 (hAMPK-alpha2): > 20 µM
- IC50 (hTRKC): > 20 µM
- IC50 (hCSNK1G3): > 20 µM
- IC50 (hBMPR2): > 20 µM
